Data on seven compounds can be found in US7638508B2, “Glucocorticosteroid compound having anti-inflammatory activity” (Glaxo Group Limited, priority 2003, dated 2009).

Format in all cases: cell-based
The target in one test is T1, Progesterone Receptor (Homo sapiens, UniProt P06401).
T1 construct: The human breast cancer cell line T47D has been reported to upregulate an endogenous alkaline phosphatase in response to progestins; endogenous in cells; host or cells: T47D cells
T1 sequence (P06401 1-933): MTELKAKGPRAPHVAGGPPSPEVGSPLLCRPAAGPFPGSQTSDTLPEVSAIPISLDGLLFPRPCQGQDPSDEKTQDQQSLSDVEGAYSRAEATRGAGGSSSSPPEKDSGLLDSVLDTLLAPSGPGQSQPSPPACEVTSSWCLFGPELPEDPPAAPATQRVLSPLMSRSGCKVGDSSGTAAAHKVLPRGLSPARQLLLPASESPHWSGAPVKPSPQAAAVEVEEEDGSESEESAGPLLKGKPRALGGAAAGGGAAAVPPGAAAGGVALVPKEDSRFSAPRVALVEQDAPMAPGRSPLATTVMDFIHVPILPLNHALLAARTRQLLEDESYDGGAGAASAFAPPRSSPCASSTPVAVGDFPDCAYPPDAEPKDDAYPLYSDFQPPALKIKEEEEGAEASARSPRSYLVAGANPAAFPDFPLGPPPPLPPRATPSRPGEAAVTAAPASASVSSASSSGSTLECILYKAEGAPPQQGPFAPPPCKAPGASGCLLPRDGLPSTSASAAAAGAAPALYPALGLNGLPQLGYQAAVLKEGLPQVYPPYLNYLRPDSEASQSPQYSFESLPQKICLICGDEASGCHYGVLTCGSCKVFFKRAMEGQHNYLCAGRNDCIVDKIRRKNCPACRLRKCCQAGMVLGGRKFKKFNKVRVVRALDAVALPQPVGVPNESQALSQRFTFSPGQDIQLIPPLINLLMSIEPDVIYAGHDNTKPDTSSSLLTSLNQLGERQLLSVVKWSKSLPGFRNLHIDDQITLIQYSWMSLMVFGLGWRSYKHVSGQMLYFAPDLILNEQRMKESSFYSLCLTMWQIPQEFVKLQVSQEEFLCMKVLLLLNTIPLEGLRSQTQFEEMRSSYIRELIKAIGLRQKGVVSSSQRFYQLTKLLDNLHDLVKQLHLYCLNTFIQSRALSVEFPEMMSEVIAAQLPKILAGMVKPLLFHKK
Nature of the test: Assay for Progesterone Receptor Activity: alkaline phosphatase upregulation in T47D cells. The following applies: 24 hours at 37° C. The procedure:
Assay for Progesterone Receptor Activity
The human breast cancer cell line T47D has been reported to upregulate an endogenous alkaline phosphatase in response to progestins (Di Lorenzo et al., Cancer Research (1991) 51, 4470-4475. T47D cells were seeded into 96 well plates at a density of 1×10^5 cells per well and grown overnight at 37° C. Steroids were dissolved in DMSO, added to the cells (final DMSO concentration 0.7%), and incubated for 24 hours at 37° C. The cells were then washed with PBS and lysed with RIPA buffer (1% IGEPAL, 0.5% Na deoxycholate, 0.1% SDS in phosphate buffered saline). Alkaline phosphatase activity was measured spectrophotometrically (405 nm) using p-nitrophenylphosphate (1.5 mg/ml) as a substrate dissolved in 1 M diethanolamine, 0.28M NaCl, 0.5 mM MgCl2. Dose response curves were constructed from which EC50 values were estimated.

Test [1] deals with T2, glucocorticoid receptor (Homo sapiens, UniProt P04150).
T2 sequence (P04150 1-777): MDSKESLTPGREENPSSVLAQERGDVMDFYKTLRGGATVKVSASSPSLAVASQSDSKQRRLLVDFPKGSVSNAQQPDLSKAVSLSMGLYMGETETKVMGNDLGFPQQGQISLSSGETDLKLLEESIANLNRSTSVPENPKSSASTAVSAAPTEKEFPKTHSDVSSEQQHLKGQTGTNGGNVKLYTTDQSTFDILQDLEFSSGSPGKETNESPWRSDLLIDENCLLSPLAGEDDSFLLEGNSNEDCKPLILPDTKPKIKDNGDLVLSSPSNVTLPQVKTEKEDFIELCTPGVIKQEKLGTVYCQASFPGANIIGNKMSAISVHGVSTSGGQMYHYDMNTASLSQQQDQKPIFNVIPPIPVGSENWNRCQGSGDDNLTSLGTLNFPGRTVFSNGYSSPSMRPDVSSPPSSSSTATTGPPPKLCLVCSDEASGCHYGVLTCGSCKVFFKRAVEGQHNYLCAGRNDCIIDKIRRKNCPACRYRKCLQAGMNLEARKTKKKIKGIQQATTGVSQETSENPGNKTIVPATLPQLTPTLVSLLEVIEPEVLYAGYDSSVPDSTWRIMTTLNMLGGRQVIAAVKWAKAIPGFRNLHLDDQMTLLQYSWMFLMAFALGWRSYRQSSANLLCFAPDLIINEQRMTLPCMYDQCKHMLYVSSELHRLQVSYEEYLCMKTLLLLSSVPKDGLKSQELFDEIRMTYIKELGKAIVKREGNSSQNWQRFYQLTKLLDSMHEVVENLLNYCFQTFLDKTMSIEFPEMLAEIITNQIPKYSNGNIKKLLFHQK
Briefly: MMTV-LTR renilla luciferase reporter assay in A549 cells (direct transactivation of gene expression). The note with it: 6 hour at 37° C., read-out: maximal response relative to Dexamethasone (100%). The procedure: (§1) Pharmacological activity may be assessed in functional in vitro assays of glucocorticoid agonist activity.
The functional assay based on that described by R. J. H. Austin et al., Eur Resp J. (2002), 20, 1386-1392 measures the ability of compounds to directly transactivate gene expression. A549 cells stably transfected with a reporter gene containing the glucocorticoid responsive region of the mouse mammary tumour virus long terminal repeat (MMTV-LTR) coupled to renilla luciferase were treated with test compounds at appropriate doses for 6 hour at 37° C. The amount of luciferase activity present within the cells is then determined by measuring the light emitted following incubation with a suitable substrate.
In general terms: A reporter such as luciferase makes a cellular process visible.

The target in test [2] is T2, glucocorticoid receptor. Nature of the test: NF-κB/ELAM promoter sPAP reporter assay in A549 cells, TNF stimulated (transrepressive activity of a glucocorticoid agonist). Also on record: A549 cells stably transfected with a reporter gene containing the NF-κB responsive elements; endogenous in cells; host or cells: A549 cells. The note with it: compound 1 hour at 37° C., then TNF 10 ng/ml for 16 hours, read-out: EC50 (transrepression, NF-κB sPAP reporter). The procedure: as §1
The functional assay based on that described by K. P. Ray et al., Biochem J. (1997), 328, 707-715 provides a measure of transrepressive activity of a glucocorticoid agonist. A549 cells stably transfected with a reporter gene containing the NF-κB responsive elements from the ELAM gene promoter coupled to sPAP (secreted alkaline phosphatase) are treated with test compounds at appropriate doses for 1 hour at 37° C. The cells are then stimulated with tumour necrosis factor (TNF, 10 ng/ml) for 16 hours, at which time the amount of alkaline phosphatase produced is measured by a standard colourimetric assay. Dose response curves are constructed from which EC50 values may be estimated.

pEC50: −log10 of the molar value.

As for `C[C@@H]1C[C@H]2[C@@H]3C[C@H](F)C4=CC(=O)C=C[C@]4(C)[C@@]3(F)[C@@H](O)C[C@]2(C)[C@@]1(OC(=O)c1ccc(C#N)cc1)C(=O)OCC#N` [Example 8, 17α-(4-Cyanobenzoyl)oxy-6α,9α-difluoro-11β-hydroxy-16α-methyl-3-oxo-androsta-1,4-diene-17β-carboxylic Acid Cyanomethyl Ester], the pEC50 was below 7.00 at Progesterone Receptor and at least 10.00 at glucocorticoid receptor [2]. The Emax on glucocorticoid receptor [1] is below 35%.
`CSc1ccc(C(=O)O[C@]2(C(=O)OCC#N)[C@H](C)C[C@H]3[C@@H]4C[C@H](F)C5=CC(=O)C=C[C@]5(C)[C@@]4(F)[C@@H](O)C[C@@]32C)s1` [Example 15, 6α,9α-Difluoro-11β-hydroxy-16α-methyl-17α-(5-methylthio-thiophene-2-carbonyl)oxy-3-oxo-androsta-1,4-diene-17β-carboxylic Acid Cyanomethyl Ester]: the Emax at glucocorticoid receptor [1] was below 35%. At glucocorticoid receptor [2], the pEC50 is at least 10.00.
`C[C@@H]1C[C@H]2[C@@H]3C[C@H](F)C4=CC(=O)CC[C@]4(C)[C@@]3(F)[C@@H](O)C[C@]2(C)[C@@]1(OC(=O)C1C(C)(C)C1(C)C)C(=O)OCC#N` [Example 18, 6α,9α-Difluoro-11β-hydroxy-16α-methyl-3-oxo-17α-(2,2,3,3-tetramethycyclopropylcarbonyl)oxy-androst-4-ene-17 b-carboxylic Acid Cyanomethyl Ester] had a pEC50 on Progesterone Receptor below 7.00. For the same compound, on glucocorticoid receptor [1], the Emax was below 35%.
With `C[C@@H]1C[C@H]2[C@@H]3C[C@H](F)C4=CC(=O)C=C[C@]4(C)[C@@]3(F)[C@@H](O)C[C@]2(C)[C@@]1(OC(=O)C1C(C)(C)C1(Cl)Cl)C(=O)OCC#N` (stereo partly drawn) [Example 20, 17α-(2,2-Dichloro-3,3-dimethylclopropylcarbonyl)oxy-6α,9α-difluoro-11β-hydroxy-16α-methyl-3-oxo-androsta-1,4-diene-17β-carboxylic Acid Cyanomethyl Ester], the results for the pEC50 at Progesterone Receptor and at glucocorticoid receptor [2] were below 7.00 and at least 10.00, respectively. Also, on glucocorticoid receptor [1], the Emax was below 35%.
On Progesterone Receptor, `C[C@@H]1C[C@H]2[C@@H]3C[C@H](F)C4=CC(=O)C=C[C@]4(C)[C@@]3(F)[C@@H](O)C[C@]2(C)[C@@]1(OC(=O)c1ccc(S(C)(=O)=O)s1)C(=O)SCC#N` [Example 23, 6α,9α-Difluoro-11β-hydroxy-16α-methyl-17α-(5-methylsulphonyl-thiophene-2-carbonyl)oxy-3-oxo-androsta-1,4-diene-17β-carbothioic Acid S-cyanomethyl Ester] had a pEC50 below 7.00. At glucocorticoid receptor [1], the Emax was below 35%.
Turning to `C[C@@H]1C[C@H]2[C@@H]3C[C@H](F)C4=CC(=O)C=C[C@]4(C)[C@@]3(F)[C@@H](O)C[C@]2(C)[C@@]1(OC(=O)c1ccc(C(F)(F)F)o1)C(=O)SCC#N` [Example 24, 6α,9α-Difluoro-11β-hydroxy-16α-methyl-3-oxo-17α-(5-trifluoromethyl-furan-2-carbonyl)oxy-androsta-1,4-diene-17β-carbothioic Acid S-cyanomethyl Ester], at Progesterone Receptor, the pEC50 is below 7.00. For the same compound, the Emax on glucocorticoid receptor [1] was below 35%.
As for `C[C@@H]1C[C@H]2[C@@H]3C[C@H](F)C4=CC(=O)C=C[C@]4(C)[C@@]3(F)[C@@H](O)C[C@]2(C)[C@@]1(OC(=O)c1cccc(SC(F)F)c1)C(=O)SCC#N` [Example 25, 6α,9α-Difluoro-17α-(3-(difluoromethylthio)benzoyl)oxy-11β-hydroxy-16α-methyl-3-oxo-androsta-1,4-diene-17β-carbothioic Acid S-cyanomethyl Ester], the pEC50 on Progesterone Receptor is below 7.00. The Emax on glucocorticoid receptor [1] was below 35%.

For orientation: pEC50 means the EC50 on a negative log10 scale, so that one unit is a factor of ten.
